{"source": "patent US20230054333A1", "about": "“Herbicide Combinations Comprising Glufosinate and Saflufenacil” (BASF SE, priority 2020, published 2023)", "conditions_in_all_cases": "visual scale 0 to 100, mean of three replications", "key": {"Palmer amaranth": {"test_system": "Palmer amaranth", "assay": "Greenhouse post emergence treatment, visual herbicidal activity against Palmer amaranth", "assay_type": "in vivo, Amaranthus palmeri", "from_the_text": "(§1) Synergism can be described as an interaction where the combined effect of two or more compounds is greater than the sum of the individual effects of each of the compounds. The presence of a synergistic effect in terms of percent control, between two mixing partners (X and Y) can be calculated using the Colby equation (Colby, S. R., 1967, Calculating Synergistic and Antagonistic Responses in Herbicide Combinations, Weeds, 15, 21-22):\n(§2) When the observed combined control effect is greater than the expected (calculated) combined control effect (E), then the combined effect is synergistic.\n(§3) Weeds included Palmer aamaranth (Amaranthus palmen) and crop plants included soybean (Glycine max) with glufosinate tolerance (Liberty Link, BASF) or glyphosate tolerance (Roundup Ready, Bayer). However, the herbicidal effect afforded by the compounds, mixtures or compositions is not limited to these species. The analysis of synergism or antagonism between the mixtures or compositions was determined using Colby's equation.\n(§4) Pots with 0.3 L of volume were filled with soil (SunGro Horticulture, Agawam, MA 01001) to grow one plant per pot in the greenhouse until the desired developmental stage. […] During this time, the plants were tended, and their response to the individual treatments was evaluated. […]"}, "LibertyLink Soybean": {"test_system": "LibertyLink Soybean", "assay": "Greenhouse post emergence treatment, visual herbicidal activity against LibertyLink soybean", "assay_type": "in vivo, Glycine max", "from_the_text": "as §1, §2, §3, §4"}, "Roundup Ready Soybean": {"test_system": "Roundup Ready Soybean", "assay": "Greenhouse post emergence treatment, visual herbicidal activity against Roundup Ready soybean", "assay_type": "in vivo, Glycine max", "from_the_text": "as §1, §2, §3, §4"}}, "data": [{"smiles": "CC(C)N(C)S(=O)(=O)NC(=O)c1cc(-n2c(=O)cc(C(F)(F)F)n(C)c2=O)c(F)cc1Cl", "note": "[Saflufenacil]", "values": [{"measurement": "Herbicidal activity against Palmer amaranth (2 DAT) Found", "setting": "Palmer amaranth; Saflufenacil 1 g ai/ha", "value": 4}, {"measurement": "Herbicidal activity against LibertyLink Soybean (2 DAT) Found", "setting": "LibertyLink Soybean; Saflufenacil 1 g ai/ha", "value": 1}, {"measurement": "Herbicidal activity against Roundup Ready Soybean (2 DAT) Found", "setting": "Roundup Ready Soybean; Saflufenacil 1 g ai/ha", "value": 0}]}, {"smiles": "CP(=O)(O)CCC(N)C(=O)O", "note": "(racemic) [Glufosinate, (2RS)-2-amino-4-[hydroxy(methyl)phosphinoyl]butyric acid]", "values": [{"measurement": "Herbicidal activity against Palmer amaranth (2 DAT) Found", "setting": "Palmer amaranth; Glufosinate 280 g ai/ha", "value": 20}, {"measurement": "Herbicidal activity against LibertyLink Soybean (2 DAT) Found", "setting": "LibertyLink Soybean; Glufosinate 280 g ai/ha", "value": 5}, {"measurement": "Herbicidal activity against Roundup Ready Soybean (2 DAT) Found", "setting": "Roundup Ready Soybean; Glufosinate 280 g ai/ha", "value": 35}]}]}
